Test results: US20170363612A1, “COMPOSITIONS AND METHODS RELATING TO PROLIFERATIVE DISORDERS” (Wayne State University, priority 2014, published 2017)
Several values for one entry are separate records, joined by “and”; a condition that tells them apart may be missing. Equal values may be shown once. Entries after “also recorded” stand apart in the source; their conditions may differ. Read-outs that look alike come from different tables or passages of the source. Marks after values point to notes of the source that are not given here. Residues, ends and D or L forms follow the SMILES beside them. *: point of attachment. Cbz = O=C(OCc1ccccc1)*

Experiments:
SET Ribosome [1] = test system: SET Ribosome
SET Ribosome [2] = format: in vivo, nude mice; conditions: individual animals; for % Induction: post- vs pre-treatment
[3] = test system: HCT116 hTRdm-fLUC#32 tumors; format: in vivo, nude mice; conditions: cremophorEL 0.5 mg/kg/day Q2Dx5; cyclophosphamide 120 mg/kg/day Q4Dx3; IV
[4] = in vivo, cited from earlier work
SET Ribosome [5] = experiment: TR SET Assay (TPA Reference Standard) on HCT116 TR Cell Panel before and after nonadherent tumorsphere growth; format: cell-based, human; parameters: concentration or dose not given beside the values; conditions: for SET Activity (day 0): TPA Reference Standard; for SET Activity (post-growth): TPA, after 32 days tumorsphere growth and 14 days replating
SET Ribosome [6] = experiment: CremophorEL Cell Count Dose Response Assay, HEK293 TR cell lines; format: cell-based, human; conditions: HEK293 mTRdm-fLUC#12; 100 nM TPA
[7] = test system: HCT116 hTRdm-fLUC#32 tumors; conditions: for Tumor Regression during Treatment, Average / Tumor Regression during Treatment, Mean: oral daily 18 days, Cape 500 mg/kg/day, anisomycin L 0.000027, H 0.000054 mg/kg/day
[8] = test system: HCT116 hTRdm-fLUC#32 tumors; conditions: for Tumor Regression during Treatment, Average / Tumor Regression during Treatment, Mean: oral daily 10 days, Cape 400 mg/kg/day
SET Ribosome [9] = experiment: Cobalt chloride Dose-dependent Modifier Assay, HEK293 mTRdm-fLUC#12; format: cell-based, human; conditions: 6 hours
SET Ribosome [10] = experiment: TPA Reference Standard Response Modifier Assay with ribosome binding translation inhibitors, HEK293 hTRdm-fLUC#13; format: cell-based, human; conditions: with 100 nM TPA; 6 hours
SET Ribosome [11] = experiment: Rapamycin dose response and TPA+Taxol Modifier Assay, MCF7 TR Cell Panel
Description: To tease apart the growth and stress responses, cells were treated with varying doses of rapamycin, incubated at 37° C. for 6 hours, and assayed for fLuc activity.
In other studies, the effects of different rapamycin concentrations were measured in combination with the TPA+Taxol Reference Standard response in the MCF7 derived cell lines that express the fLuc reporter either constitutively (CMV lines) or as a part of the TR Expression Cassette (hTR and mTR lines). […] Cells were treated with 100 nM TPA, 500 nM paclitaxel, and varying concentrations of rapamycin, incubated at 37° C. for 6 hours, and assayed for fLuc activity.
Select members of the MCF7 TR Cell Panel were plated into 96-well microtiter plates and processed as described for a Cell Count Dose-dependent Modifier protocol. Rapamycin concentrations were tested for an ability to alter the Reference Standard responses produced by a 100 nM TPA/500 nM paclitaxel combination. Rapamycin was applied at doses ranging from 1 nM to 1 μM concentrations. All dilutions were prepared in complete growth media. Cells were incubated for 6 hrs, processed, and assayed for luciferase activity as described.

[12] = single listed concentration: dbcAMP 5 mM, TPA 100 nM, Paclitaxel 500 nM, MG132 50 uM, Colchicine 1 uM, MRA 150 nM, Bortezomib 50 nM
[13] = MCF7 TR Class 3/4 lines, 100 nM TPA + 500 nM paclitaxel, 6 hours

CC(C)C[C@H](NC(=O)[C@H](Cc1ccccc1)NC(=O)c1cnccn1)B(O)O [Bortezomib (Velcade), [(1R)-3-methyl-1-[[(2S)-1-oxo-3-phenyl-2-[(pyrazinylcarbonyl)amino]propyl]amino]butyl] boronic acid]
SET Response (SET Ribosome [1]; [12]): Antagonist/; also recorded: Agonist

CNc1ccc2oc(C[C@H]3O[C@@]4(CC[C@H]3C)O[C@H]([C@H](C)C(=O)c3ccc[nH]3)[C@H](C)C[C@H]4C)nc2c1C(=O)O [Calon, Calcimycin]
SET Response (SET Ribosome [1]): Antagonist; also recorded: Agonist

COc1cc2c(c(OC)c1OC)-c1ccc(OC)c(=O)cc1[C@@H](NC(C)=O)CC2 [Colchicine, N-[(7S)-1,2,3,10-tetramethoxy-9-oxo-5,6,7,9-tetrahydrobenzo[a]heptalen-7-yl]acetamide]
SET Response (SET Ribosome [1]): Agonist

O=P1(N(CCCl)CCCl)NCCCO1 (centres unmarked) [Cyclophosphamide, RS-N,N-bis(2-chloroethyl)-1,3,2-oxazaphosphinan-2-amine 2-oxide]
6 hr Post-treatment Value (bioluminescence signal intensity) (SET Ribosome [2]; IV, CremophorEL 0.5 mg/kg, paclitaxel 20 mg/kg, cyclophosphamide 120 mg/kg, average tumor size 125 mg): 38.6 ×10e6 photons and 50.4 ×10e6 photons and 101.0 ×10e6 photons and 39.3 ×10e6 photons and 82.5 ×10e6 photons and 56.8 ×10e6 photons
6 hr Post-treatment Value (bioluminescence signal intensity) (SET Ribosome [2]; average tumor size 500 mg): 75.0 ×10e6 photons and 81.5 ×10e6 photons and 48.8 ×10e6 photons
% Induction (SET Ribosome [2]; average tumor size 125 mg): 12,866.7% *** and 381.8% and 167.2% and 13,100.0% *** and 373.3% and 18,933.3% ***
% Induction (SET Ribosome [2]; average tumor size 500 mg): 204.9% and 368.8% and 109.7%
effect on tumor growth [3]: slowed tumor growth
elimination half-life ([4]; po): 3 to 12 h
oral bioavailability ([4]; po): > 75%
dose excreted in the urine as unchanged drug [4]: 5-25%

CC(C)C[C@@H](C=O)NC(=O)[C@H](CC(C)C)NC(=O)[C@H](CC(C)C)NC(=O)OCc1ccccc1 [MG132, Z-Leu-Leu-Leu-aldehyde] (Cbz-Leu-Leu-Leu-aldehyde)
SET Response (SET Ribosome [1]): Antagonist/; also recorded: Agonist

CC(=O)O[C@H]1C(=O)[C@@]2(C)[C@H]([C@H](OC(=O)c3ccccc3)[C@]3(O)C[C@H](OC(=O)[C@H](O)[C@@H](NC(=O)c4ccccc4)c4ccccc4)C(C)=C1C3(C)C)[C@]1(OC(C)=O)CO[C@@H]1C[C@@H]2O [Paclitaxel, 5β,20-epoxy-1,2α,4,7β,10β,13α-hexahydroxytax-1-1-en-9-14,10-diacetate 2-benzoate 13-ester with (2R,3S)-N-benzoyl-3-phenylisoserine]
SET Response (SET Ribosome [1]; [12]): Agonist

CCCCCCCCCCCCCC(=O)O[C@@H]1[C@@H](C)[C@@]2(O)[C@@H](C=C(CO)C[C@]3(O)C(=O)C(C)=C[C@@H]23)[C@@H]2C(C)(C)[C@]12OC(C)=O [TPA, 12-O-tetradecanoylphorbol-13-acetate]
SET Activity (day 0) (SET Ribosome [5]; HCT116 mTRdm-fLUC#17): 226.3%
SET Activity (post-growth) (SET Ribosome [5]; HCT116 mTRdm-fLUC#17): 366.0%
SET Activity (day 0) (SET Ribosome [5]; HCT116 mTRdm-fLUC#25): 336.6%
SET Activity (post-growth) (SET Ribosome [5]; HCT116 mTRdm-fLUC#25): 26,675.6%
SET Activity (day 0) (SET Ribosome [5]; HCT116 mTRdm-fLUC#28): 1,365.5%
SET Activity (post-growth) (SET Ribosome [5]; HCT116 mTRdm-fLUC#28): 20,492.8%
SET Activity (day 0) (SET Ribosome [5]; HCT116 mTRdm-fLUC#36): 875.3%
SET Activity (post-growth) (SET Ribosome [5]; HCT116 mTRdm-fLUC#36): 3,926.9%
SET Activity (day 0) (SET Ribosome [5]; HCT116 mTRdm-fLUC#47): 237.5%
SET Activity (post-growth) (SET Ribosome [5]; HCT116 mTRdm-fLUC#47): 1,434.3%
SET Activity (day 0) (SET Ribosome [5]; HCT116 mTRdm-fLUC#49): 329.4%
SET Activity (post-growth) (SET Ribosome [5]; HCT116 mTRdm-fLUC#49): 2,015.4%
SET Activity (day 0) (SET Ribosome [5]; HCT116 mTRdm-fLUC#52): 261.1%
SET Activity (post-growth) (SET Ribosome [5]; HCT116 mTRdm-fLUC#52): 920.0%
SET Activity (day 0) (SET Ribosome [5]; HCT116 mTRdm-fLUC#58): 324.4%
SET Activity (post-growth) (SET Ribosome [5]; HCT116 mTRdm-fLUC#58): 636.6%
SET Activity (day 0) (SET Ribosome [5]; HCT116 mTRdm-fLUC#75): 693.1%
SET Activity (post-growth) (SET Ribosome [5]; HCT116 mTRdm-fLUC#75): 19,413.0%
SET Activity (day 0) (SET Ribosome [5]; HCT116 mTRdm-fLUC#139): 114.8%
SET Activity (post-growth) (SET Ribosome [5]; HCT116 mTRdm-fLUC#139): 311.9%
SET Activity (day 0) (SET Ribosome [5]; HCT116 mTRdm-fLUC#156): 462.3%
SET Activity (post-growth) (SET Ribosome [5]; HCT116 mTRdm-fLUC#156): 3,673.3%
SET Activity (day 0) (SET Ribosome [5]; HCT116 mTRdm-fLUC#190): 204.4%
SET Activity (post-growth) (SET Ribosome [5]; HCT116 mTRdm-fLUC#190): 178.3%
SET Activity (day 0) (SET Ribosome [5]; HCT116 mTRdm-fLUC#220): 115.5%
SET Activity (post-growth) (SET Ribosome [5]; HCT116 mTRdm-fLUC#220): 81.8%
SET increase (SET Ribosome [6]): > 2000%
SET Response (SET Ribosome [1]): Agonist

CCCCCOC(=O)Nc1nc(=O)n([C@@H]2O[C@H](C)[C@@H](O)[C@H]2O)cc1F [capecitabine, pentyl [1-(3,4-dihydroxy-5-methyltetrahydrifuran-2-yl)-5-fluoro-2-oxo-1H-pyrimidine-4-yl]carbamate]
Animal weight averages, day 7 ([7]; mouse, in vivo): 20.88 g
Animal weight averages, day 10 ([7]; mouse, in vivo): 20.88 g
Animal weight averages, day 13 ([7]; mouse, in vivo): 20.36 g
Animal weight averages, day 15 ([7]; mouse, in vivo): 19.38 g
Animal weight averages, day 18 ([7]; mouse, in vivo): 18.50 g
Animal weight averages, day 24 ([7]; mouse, in vivo): 19.56 g
Animal weight averages, day 31 ([7]; mouse, in vivo): 21.17 g
Animal weight averages, day 35 ([7]; mouse, in vivo): 22.32 g
Animal weight averages, day 38 ([7]; mouse, in vivo): 22.99 g
spontaneous death ([7]; mouse, in vivo): one
survival mean ([7]; mouse, in vivo): 24 days
Tumor Regression during Treatment, Average [7]: 53.2%
Tumor Regression during Treatment, Mean [7]: 56%
Tumor Regression during Treatment, Average ([7]; listed as Cape): 53.2%
Tumor Regression during Treatment, Mean ([7]; listed as Cape): 56.0%
survival mean ([8]; Example 3 text on FIG. 16): 47 days
sacrifice mean ([8]; Kaplan-Meier, FIG. 16 description): 47 days
Tumor Regression during Treatment, Average [8]: 35.2%
Tumor Regression during Treatment, Mean [8]: 35.2%
Tumor Regression during Treatment, Average ([8]; listed as Cape): 29.4%
Tumor Regression during Treatment, Mean ([8]; listed as Cape): 35.2%
time of maximal metabolite concentration in the plasma ([4]; iv): 2 to 3 h

[Cl-].[Cl-].[Co+2] [cobalt(II) chloride]
doses repressing background SET Ribosome activity (SET Ribosome [9]; cobalt applied alone): > 50 µM
doses inhibiting TPA SET activation (SET Ribosome [9]; with 100 nM TPA): > 200 µM
doses inhibiting TPA SET activation (SET Ribosome [9]; with 100 nM TPA, listed as CoCl2): ≥ 200 µM
IC50 (SET Ribosome [9]; with 100 nM TPA, read-out: IC50, inhibition of SET activity in cells treated with TPA): ~1000 µM
doses inhibiting SET Ribosome activation by paclitaxel (Taxol) (SET Ribosome [9]; with paclitaxel Reference Standard): > 50 µM
doses inhibiting SET Ribosome activation by paclitaxel (Taxol) (SET Ribosome [9]; with paclitaxel Reference Standard, listed as CoCl2): ≥ 50 µM
IC50 (SET Ribosome [9]; with paclitaxel Reference Standard, read-out: IC50, inhibition of SET Ribosome activation by paclitaxel): ~200 µM

C[C@@H]1C[C@@H]([C@H](O)CC2CC(=O)NC(=O)C2)C(=O)[C@@H](C)C1 [cycloheximide]
IC100 (100% SET Ribosome inhibition) (SET Ribosome [10]): > 10 µM

COc1ccc(C[C@H](N)C(=O)N[C@H]2[C@@H](O)[C@H](n3cnc4c(N(C)C)ncnc43)O[C@@H]2CO)cc1 [puromycin]
IC100 (100% SET Ribosome inhibition) (SET Ribosome [10]): > 25 µM

CO[C@H]1C[C@@H]2CC[C@@H](C)[C@@](O)(O2)C(=O)C(=O)N2CCCC[C@H]2C(=O)O[C@H]([C@H](C)C[C@@H]2CC[C@@H](O)[C@H](OC)C2)CC(=O)[C@H](C)/C=C(\C)[C@@H](O)[C@@H](OC)C(=O)[C@H](C)C[C@H](C)/C=C/C=C/C=C/1C [rapamycin]
concentrations giving SET decline in TPA+Taxol treated samples (SET Ribosome [11]; [13]): ≥ 100 nM
dose up to which SET of TPA+Taxol treated samples is super-induced (SET Ribosome [11]; [13]): ≤ 50 nM
dose giving a spike in fLuc activity (SET Ribosome [11]; MCF7 TR Class 3/4 lines, rapamycin alone, 6 hours): 50 nM
doses at which the magnitude of SET is reduced but not eliminated (SET Ribosome [11]; MCF7 cells, 6 hrs): > 50 nM

polyoxyl 35 castor oil [cremophorEL]
Animal weight averages, day 7 ([7]; mouse, in vivo): 22.25 g
Animal weight averages, day 10 ([7]; mouse, in vivo): 22.39 g
Animal weight averages, day 13 ([7]; mouse, in vivo): 22.23 g
Animal weight averages, day 15 ([7]; mouse, in vivo): 21.60 g
Animal weight averages, day 18 ([7]; mouse, in vivo): 21.93 g
Animal weight averages, day 24 ([7]; mouse, in vivo): 21.59 g
Animal weight averages, day 31 ([7]; mouse, in vivo): 20.22 g
